The target of assay [1] is Intestinal-type alkaline phosphatase (Homo sapiens, UniProt P09923). Description: human IAP activators, dose response, biochemical, luminescent, uHTS hits, set 2 (AID 488817).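 Also: potency of activators that raise enzyme activity.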 It is filed as functional.
Another assay addresses LIM domain kinase 1 (Homo sapiens, UniProt P53667). Nature of the assay: Navigating the Kinome. Panel member name: LIMK1. Type of assay: functional.
The next assay concerns the target T1, Insulin-degrading enzyme (Homo sapiens, UniProt P14735).
T1 sequence (P14735 whole entry): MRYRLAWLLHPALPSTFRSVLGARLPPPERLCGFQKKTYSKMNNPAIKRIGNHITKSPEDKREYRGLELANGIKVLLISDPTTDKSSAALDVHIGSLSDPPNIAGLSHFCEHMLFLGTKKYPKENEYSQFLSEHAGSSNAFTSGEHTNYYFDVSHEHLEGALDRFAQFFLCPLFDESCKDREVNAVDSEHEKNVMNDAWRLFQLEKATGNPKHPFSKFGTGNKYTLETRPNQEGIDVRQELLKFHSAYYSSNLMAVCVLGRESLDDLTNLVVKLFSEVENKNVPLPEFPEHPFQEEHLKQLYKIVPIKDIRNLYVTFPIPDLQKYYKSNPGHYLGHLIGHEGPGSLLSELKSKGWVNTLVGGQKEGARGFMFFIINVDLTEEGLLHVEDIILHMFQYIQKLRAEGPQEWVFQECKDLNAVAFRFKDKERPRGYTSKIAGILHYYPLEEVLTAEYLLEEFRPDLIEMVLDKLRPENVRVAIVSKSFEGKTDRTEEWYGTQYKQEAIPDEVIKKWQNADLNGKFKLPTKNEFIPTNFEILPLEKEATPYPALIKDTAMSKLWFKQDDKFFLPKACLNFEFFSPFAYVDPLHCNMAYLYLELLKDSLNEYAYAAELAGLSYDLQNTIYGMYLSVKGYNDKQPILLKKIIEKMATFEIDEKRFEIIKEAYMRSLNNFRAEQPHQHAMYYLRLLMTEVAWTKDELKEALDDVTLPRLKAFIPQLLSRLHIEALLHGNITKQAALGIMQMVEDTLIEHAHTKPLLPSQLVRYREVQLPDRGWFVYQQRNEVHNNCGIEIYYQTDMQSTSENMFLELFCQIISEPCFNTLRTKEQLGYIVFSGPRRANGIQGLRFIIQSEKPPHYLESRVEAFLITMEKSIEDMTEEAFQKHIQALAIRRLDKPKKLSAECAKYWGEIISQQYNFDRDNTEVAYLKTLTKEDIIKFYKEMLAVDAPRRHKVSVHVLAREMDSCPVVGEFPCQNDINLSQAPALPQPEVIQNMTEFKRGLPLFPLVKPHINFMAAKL
Description: activators of recombinant IDE enzyme, dose response, counter-screen for IDE activator project, biochemical, fluorescence polarization (AID 588681).

Assay [2] in a line: C. albicans growth with fluconazole, confirmation, fluorescence, retest (AID 2467). It is filed as functional, cell-based.
The nature of assay [3]: cytotoxicity toward NIH3T3 fibroblasts, dose response, counter-screen, cell-based, ATP luminescence, mouse fibroblasts (AID 2010).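 Also: cells exposed to compound for about 90 hours before reading.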 It is filed as functional.
Assay [4] in a line: luciferase reporter signal reduction – luminescence, H4-C neuroglioblastoma cells, dose response (AID 2458).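 Also: H4 neuroglioblastoma cells stably carrying a luciferase reporter gene fusion.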 Type of assay: functional, cell-based.
Assay [5] in a line: inhibitors of HIV Env-driven cell fusion, dose response, cherry-pick (AID 652057). Type of assay: functional, cell-based.
The next assay in a line: cells. Type of assay: functional, cell-based.
The nature of assay [6]: inhibitors of clade B AD8 Env fusion, dose response, cell-based, cherry-pick (AID 652062).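 Also: luciferase signal from cell-cell fusion driven by HIV-1 clade B AD8 Env; potency is for inhibitors of fusion seen as a drop in luminescence.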 Type of assay: functional.
Assay [7] deals with T2, Lysine-specific demethylase 4C (Homo sapiens, UniProt Q9H3R0).
T2 sequence (Q9H3R0 whole entry): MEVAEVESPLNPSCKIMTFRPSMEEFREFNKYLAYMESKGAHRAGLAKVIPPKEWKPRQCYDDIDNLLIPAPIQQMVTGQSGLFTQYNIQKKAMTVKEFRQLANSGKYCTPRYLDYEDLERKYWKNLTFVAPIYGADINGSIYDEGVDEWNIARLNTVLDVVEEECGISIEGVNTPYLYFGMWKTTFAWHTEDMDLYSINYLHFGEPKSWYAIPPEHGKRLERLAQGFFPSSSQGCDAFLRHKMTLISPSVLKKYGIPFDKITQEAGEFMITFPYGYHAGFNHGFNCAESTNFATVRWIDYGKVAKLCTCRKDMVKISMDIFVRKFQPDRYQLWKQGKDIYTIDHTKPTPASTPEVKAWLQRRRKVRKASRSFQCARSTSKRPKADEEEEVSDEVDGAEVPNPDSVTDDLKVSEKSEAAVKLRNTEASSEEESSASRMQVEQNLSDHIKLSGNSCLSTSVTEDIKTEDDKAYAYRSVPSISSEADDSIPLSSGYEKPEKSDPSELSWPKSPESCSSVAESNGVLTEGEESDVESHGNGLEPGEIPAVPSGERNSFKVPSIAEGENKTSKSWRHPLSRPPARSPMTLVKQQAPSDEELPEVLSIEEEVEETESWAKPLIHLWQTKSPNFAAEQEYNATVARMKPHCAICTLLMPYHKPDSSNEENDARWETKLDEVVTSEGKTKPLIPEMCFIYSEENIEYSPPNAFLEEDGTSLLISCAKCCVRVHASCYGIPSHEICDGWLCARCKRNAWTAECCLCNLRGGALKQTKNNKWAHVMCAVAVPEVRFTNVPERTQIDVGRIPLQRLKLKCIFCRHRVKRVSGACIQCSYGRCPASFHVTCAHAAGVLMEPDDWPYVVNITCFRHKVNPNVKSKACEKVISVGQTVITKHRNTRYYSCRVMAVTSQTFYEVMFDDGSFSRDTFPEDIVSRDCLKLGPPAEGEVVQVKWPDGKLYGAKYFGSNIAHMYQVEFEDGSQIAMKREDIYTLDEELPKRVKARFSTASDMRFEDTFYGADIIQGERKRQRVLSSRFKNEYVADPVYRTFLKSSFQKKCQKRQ
Nature of the assay: GASC-1 (JMJD2C) histone demethylase inhibitors, dose response, biochemical, DELFIA europium, cherry-picked samples (AID 488835). It is filed as functional.

For assay [8], the target named is T3, Zinc finger protein mex-5 (Caenorhabditis elegans, UniProt Q9XUB2).
T3 sequence (Q9XUB2 whole entry): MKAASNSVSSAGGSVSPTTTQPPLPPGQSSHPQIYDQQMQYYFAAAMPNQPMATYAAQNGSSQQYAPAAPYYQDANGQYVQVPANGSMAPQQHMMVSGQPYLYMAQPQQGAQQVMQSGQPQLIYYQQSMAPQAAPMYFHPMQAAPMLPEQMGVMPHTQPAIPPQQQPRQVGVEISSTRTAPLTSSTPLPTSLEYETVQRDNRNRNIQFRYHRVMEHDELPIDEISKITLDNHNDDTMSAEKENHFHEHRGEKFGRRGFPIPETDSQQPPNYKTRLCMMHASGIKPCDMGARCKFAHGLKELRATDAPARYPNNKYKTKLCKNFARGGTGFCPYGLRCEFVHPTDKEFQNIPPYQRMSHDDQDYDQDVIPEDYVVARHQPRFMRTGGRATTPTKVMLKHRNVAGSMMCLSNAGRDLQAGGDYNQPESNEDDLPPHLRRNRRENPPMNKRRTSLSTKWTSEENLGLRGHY
Description: MEX-5/TCR-2 RNA interaction inhibitors, dose response, biochemical, C. elegans, fluorescence polarization (AID 1960).

Active and inactive are the calls of the source. A value given as a limit tells only on which side of the number the result lay.

Chain of LIM domain kinase 1 (P53667 whole entry, the tested form may be a part): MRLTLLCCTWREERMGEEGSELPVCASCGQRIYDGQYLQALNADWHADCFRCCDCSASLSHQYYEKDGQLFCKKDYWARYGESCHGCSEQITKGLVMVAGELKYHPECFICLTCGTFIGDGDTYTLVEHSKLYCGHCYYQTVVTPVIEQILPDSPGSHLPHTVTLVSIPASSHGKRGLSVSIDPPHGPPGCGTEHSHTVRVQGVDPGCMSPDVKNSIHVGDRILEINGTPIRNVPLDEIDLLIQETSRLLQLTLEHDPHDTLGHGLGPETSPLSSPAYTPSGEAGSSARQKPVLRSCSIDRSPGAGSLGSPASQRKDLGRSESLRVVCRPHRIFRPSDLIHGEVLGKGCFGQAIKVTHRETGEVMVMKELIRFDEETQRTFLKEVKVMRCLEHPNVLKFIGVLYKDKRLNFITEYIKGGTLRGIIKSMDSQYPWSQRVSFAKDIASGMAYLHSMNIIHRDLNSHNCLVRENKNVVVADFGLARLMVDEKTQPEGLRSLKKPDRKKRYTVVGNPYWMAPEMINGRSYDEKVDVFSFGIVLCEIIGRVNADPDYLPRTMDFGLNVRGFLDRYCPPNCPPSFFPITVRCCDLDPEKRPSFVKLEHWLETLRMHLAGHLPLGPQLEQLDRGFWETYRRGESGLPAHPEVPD
Chain of Intestinal-type alkaline phosphatase (P09923 whole entry, the tested form may be a part): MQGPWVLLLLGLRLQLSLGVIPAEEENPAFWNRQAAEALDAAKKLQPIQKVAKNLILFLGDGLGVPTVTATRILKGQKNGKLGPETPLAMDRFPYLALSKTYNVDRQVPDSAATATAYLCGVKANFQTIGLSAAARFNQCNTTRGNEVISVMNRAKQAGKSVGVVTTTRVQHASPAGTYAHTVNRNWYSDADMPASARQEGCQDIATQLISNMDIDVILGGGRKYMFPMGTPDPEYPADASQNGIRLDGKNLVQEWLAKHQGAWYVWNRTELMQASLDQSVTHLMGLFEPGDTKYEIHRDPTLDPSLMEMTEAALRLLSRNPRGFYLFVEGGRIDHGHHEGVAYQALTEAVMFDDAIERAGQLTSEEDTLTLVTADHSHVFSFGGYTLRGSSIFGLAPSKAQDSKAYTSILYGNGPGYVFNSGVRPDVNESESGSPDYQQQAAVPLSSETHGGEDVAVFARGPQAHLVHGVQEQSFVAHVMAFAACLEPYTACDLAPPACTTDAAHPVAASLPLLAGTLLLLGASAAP

For the compound `O=C(N/N=C/c1c(O)ccc2ccccc12)c1[nH]ncc1Br`, the EC50 in [1] is 11.7 µM (active).
As to `Nc1c(-c2ccc(NC(=O)Nc3cccc(C(F)(F)F)c3)cc2)cnc2c(-c3ccc4c(c3)OCO4)cnn12`, the Ki on LIM domain kinase 1 was > 3.16 µM (inactive).
As for `CNC[C@H](Cc1ccccc1)NC[C@@H](Cc1cccc2ccccc12)NCCc1ccc(C)cc1`, on Insulin-degrading enzyme, the EC50 is > 54.7 µM (inactive).
For `CCN1C(=Cc2sc3ccccc3[n+]2C)C=Cc2cccc(C)c21`, the EC50 was 0.054 µM (active) in assay [2], 1.86 µM (active) in assay [3], 3.14 µM (active) in assay [4] and > 12 µM (not active) in “cells”. The AC50 in [5] is 1.86 µM (active); in assay [6], 1.05 µM (active).
For the compound `O=C(Cc1ccccc1Cl)NC1(O)C(=O)c2ccccc2C1=O`, in [7], the AC50 was 7.1 µM (active).
For `Nc1nnc2c(n1)CCCC2`, in assay [8], the EC50 was 59.3 µM (active).

The values are drawn from ChEMBL document CHEMBL1201862, “PubChem BioAssay data set” (2004).
